The record followed here is paper PMC4847154, “Sticky swinging arm dynamics: studies of an acyl carrier protein domain from the mycolactone polyketide synthase” (Biochemical Journal, 2016).

Test [1] concerns the target T1, mACP9 (ACP domain from MLSA2, module 9 of the mycolactone PKS) (Mycobacterium ulcerans, UniProt Q6MZA5).
T1 construct: excised ACP domain, residues 2050-2140; N-terminal His6-tag cleaved by thrombin leaving GSHM; E. coli Tuner(DE3); monomer; Ppant attachment at Ser2096
In words: circular dichroism thermal denaturation. The conditions noted are these: absolute Tm. Format: binding. Background: CD spectra are sensitive to the conformation of chiral molecules.

The target in test [2] is T1, mACP9 (ACP domain from MLSA2, module 9 of the mycolactone PKS). As to the kind of experiment: solution NMR structure. Format: binding. Particulars: covalent at Ser2096; nonpolar pocket between helix α2 and turns α2′ and α3′; phosphate buffer pH 7.5, 283 K.

Take “hexanoyl-mACP9 (hexanoyl-phosphopantetheine group)”: the Tm in test [1] (covalent at Ser2096 (hexanoyl-Ppant), buffer as above, apo and holo references in the same sentence) was 58 °C.

As for `CC(C)(COP(=O)(O)O)[C@@H](O)C(=O)NCCC(=O)NCCS` [holo, 4′-phosphopantetheine], in test [1] (covalent at Ser2096 (holo form), 20 mM sodium hydrogen phosphate, 50 mM NaF, pH 7.5, apo reference in the same sentence), the melting temperature (Tm) stood at 59 °C.

As to `CCCCCCCC(=O)SCCNC(=O)CCNC(=O)[C@H](O)C(C)(C)COP(=O)(O)O` [octanoyl, octanoyl-phosphopantetheine group], the Tm in test [1] (covalent at Ser2096 (octanoyl-Ppant), buffer as above, apo and holo references in the same sentence) came out at 57 °C. In test [2], the “solution NMR structure” value is “final ensemble for octanoyl-mACP9 were deposited in the Protein Data Bank under ID code 5HV8”.

A word on the Tm: it is the temperature at the midpoint of the melting transition.
